{"source": "paper PMC5626781", "about": "“A Potent Tartrate Resistant Acid Phosphatase Inhibitor to Study the Function of TRAP in Alveolar Macrophages” (Scientific Reports, 2017)", "key": {"recombinant human TRAP5a": {"target": "T1, recombinant human TRAP5a (Homo sapiens, UniProt P13686)", "T1 construct": "made in house", "T1 sequence (P13686 22-325)": "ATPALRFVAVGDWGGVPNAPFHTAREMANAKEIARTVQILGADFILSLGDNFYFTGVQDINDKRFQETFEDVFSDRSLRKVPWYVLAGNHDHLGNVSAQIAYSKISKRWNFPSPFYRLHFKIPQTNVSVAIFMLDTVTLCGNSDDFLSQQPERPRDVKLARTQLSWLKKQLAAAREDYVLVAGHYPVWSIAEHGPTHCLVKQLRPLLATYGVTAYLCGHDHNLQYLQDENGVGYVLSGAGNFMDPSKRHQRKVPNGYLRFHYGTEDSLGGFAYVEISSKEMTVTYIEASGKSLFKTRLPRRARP", "assay": "TRAP activity assay (PNPP) with recombinant TRAP5a", "format": "biochemical", "conditions": "pH 5, 30 min 37 °C, mean ± standard error, n = 3", "procedure": "Recombinant unspecified human TRAP was purchased from R&D (Minneapolis, USA). Recombinant human TRAP5a and 5b were produced and purified according to a protocol based on several sources[70]–[72] using an ÄKTApurifier™ 10 FPLC system (GE Healthcare, Danderyd, Sweden) as previously described.\nInhibitor dilutions were prepared in acetate buffer from freshly prepared stock solutions (10 mM in DMSO). Recombinant unspecified TRAP (1.25 ng/ml, pH 4.5), TRAP5a (150 ng/mL, pH 5) or TRAP5b (150 ng/mL, pH 5.8) were incubated at 37 °C for 30 minutes with PNPP solution [10 mM PNPP, 200 mM sodium acetaat, 300 mM potassium chloride) at the indicated pH at a 1:1 ratio and increasing concentrations of NaAuCl4 (range 0–40 μM) or Au compounds (range 0–5.1 μM). To stop the reaction, 1M NaOH was added and absorption at 410 nm, with 490 nm as a reference value, was measured using a spectrophotometer.\nThe inhibitory effects of gold compounds were calculated as the ratio of absorbance between the treated and untreated wells. The IC50 values were calculated using nonlinear curve fitting with a variable slope in Graphpad Prism 6 (Graphpad Software, la Jolla, USA). An average IC50 of three independent experiments was calculated."}, "RAW264.7 macrophages [1]": {"test_system": "RAW264.7 macrophages", "assay": "Transwell migration, collagen-coated membrane", "format": "cell-based, mouse", "conditions": "AubipyOMe 80 nM, with or without RANKL 200 ng/ml", "procedure": "Migration of RAW264.7 macrophages was assessed using a transwell-culturing system with inserts (Sigma-Aldrich) coated with osteopontin (10 μg/ml, R&D). Bovine collagen-coated inserts (10 μg/ml, Advanced Biometrix, Carlsbad, USA) were used as matrix control. Cells were incubated with or without RANKL (200 ng/ml) for 72 hours to induce TRAP activity or not[75], in the presence or absence of AubipyOMe (80 nM) in quadruplicate. The previously described TRAP inhibitor 5-PNA (100 μM) was used as selective positive control for TRAP inhibition[15],[23]. The number of cells migrated to the lower well, including dead cells, was calculated relative to control cells and individual experiments were done at least six times. […]\n(§1) Transwell experiment to assess macrophage migration\n(§2) Migration of RAW264.7 macrophages was assessed using a transwell-culturing system with inserts (Sigma-Aldrich) coated with osteopontin (10 µg/ml, R&D). Bovine collagen-coated inserts (Advanced Biometrix, Carlsbad, USA) were used as a matrix control. […] The number of cells migrated to the lower well, including dead cells, was calculated relative to control cells and individual experiments were done at least six times. […]"}, "RAW264.7 macrophages [2]": {"test_system": "RAW264.7 macrophages", "assay": "Live cell imaging of macrophage migration on osteopontin-coated wells", "format": "cell-based, mouse", "conditions": "AubipyOMe 80 nM", "procedure": "Briefly, RAW264.7 macrophages were plated on osteopontin-coated (10 μg/ml, R&D) Lab-tek chamber slides (Nunc, Hatfield, USA). Cells were incubated with or without RANKL (200 ng/ml) for 48 hours to induce TRAP activity or not[75], followed by labeling with carboxyfluorescein diacetate succinimidyl ester (CFSE, Invitrogen, Life Technologies Europe BV, Bleiswijk, The Netherlands) to visualize cells for live cell imaging using a confocal microscope (Solamere Nipkow Confocal Live Cell Imaging system, Solamere Technology Group, Salt lake city, USA). Cell movement was tracked overnight in the presence of 1% zymosan solution (Sigma-Aldrich), to stimulate cell movement, and with or without TRAP inhibitor AubipyOMe (80 nM). Pictures were taken every 10 min and were transformed into movies with Image J and Imaris x64 (Bitplane, Zurich, Switzerland) software.\nIC50 of four independent experiments was calculated.\nas §1, §2"}}}
{"compound": "COc1ccnc(-c2cc(OC)ccn2)c1.F[P-](F)(F)(F)(F)F.[Cl][Au+][Cl]", "note": "[AubipyOMe, [Au(4,4′-dimethoxy-2,2′-bipyridine)Cl2][PF6]]", "values": [{"measurement": "IC50", "setting": "recombinant human TRAP5a", "result": "1300 ± 500", "unit": "nM"}, {"measurement": "migration through collagen-coated membrane", "setting": "RAW264.7 macrophages [1]", "result": "no effect"}, {"measurement": "migratory behavior of RANKL-pretreated macrophages, live cell tracking", "setting": "RAW264.7 macrophages [2]; RANKL 200 ng/ml 48 h", "result": "inhibited this migratory behavior"}, {"measurement": "migratory behavior of control cells, live cell tracking", "setting": "RAW264.7 macrophages [2]; no RANKL", "result": "did not affect the migratory behavior"}]}
